According to ChEMBL document CHEMBL1275509, “Plasmid-encoded carbapenem-hydrolyzing beta-lactamase OXA-48 in an imipenem-susceptible Klebsiella pneumoniae strain from Belgium” (2008):
Values after ≈ are worked out from the molar mass of the structure shown.

What was measured:
Klebsiella pneumoniae [1] = assay: Antibacterial activity against Klebsiella pneumoniae 11978 harboring plasmid pA-1carrying beta-lactamase OXA-48 by Etest method in presence of beta-lactamase inhibitor clavulanic acid; assay type: functional
Escherichia coli [2] = assay: Antibacterial activity against Escherichia coli J53 harboring plasmid pA-1carrying beta-lactamase OXA-48 by Etest method in presence of beta-lactamase inhibitor clavulanic acid; assay type: functional
Escherichia coli [3] = assay: Antibacterial activity against Escherichia coli J53 by Etest method in presence of beta-lactamase inhibitor clavulanic acid; assay type: functional
Escherichia coli [4] = assay: Antibacterial activity against Escherichia coli J53 by Etest method; assay type: functional
Klebsiella pneumoniae [5] = assay: Antibacterial activity against human urinary Klebsiella pneumoniae UCL-1 harboring plasmid-encoded beta-lactamase OXA-48 by Etest method; assay type: functional; settings: UCL-1, Urine
Escherichia coli [6] = assay: Antibacterial activity against Escherichia coli J53 harboring plasmid-encoded beta-lactamase OXA-48 by Etest method; assay type: functional
Klebsiella pneumoniae [7] = assay: Antibacterial activity against Klebsiella pneumoniae 11978 harboring plasmid pA-1carrying beta-lactamase OXA-48 by Etest method; assay type: functional
Escherichia coli [8] = assay: Antibacterial activity against Escherichia coli J53 harboring plasmid pA-1carrying beta-lactamase OXA-48 by Etest method; assay type: functional
Klebsiella pneumoniae [9] = assay: Antibacterial activity against human urinary Klebsiella pneumoniae UCL-1 harboring plasmid-encoded beta-lactamase OXA-48 by Etest method in presence of beta-lactamase inhibitor clavulanic acid; assay type: functional; settings: UCL-1, Urine
Escherichia coli [10] = assay: Antibacterial activity against Escherichia coli J53 harboring plasmid-encoded beta-lactamase OXA-48 by Etest method in presence of beta-lactamase inhibitor clavulanic acid; assay type: functional
[11] = target: Beta-lactamase OXA-48 (Klebsiella pneumoniae) (UniProt Q6XEC0); assay: Compound hydrolyzing activity of Klebsiella pneumoniae beta-lactamase OXA-48; settings: UCL-1
Klebsiella pneumoniae [12] = assay: Antibacterial activity against amoxicillin and amoxicillin-clavulanate resistant Klebsiella pneumoniae UCL-1 assessed as zone of inhibition by disk diffusion method; assay type: functional
Escherichia coli [13] = assay: Antibacterial activity against Escherichia coli J53 by Etest method in presence of beta-lactamase inhibitor Tazobactam; assay type: functional
Escherichia coli [14] = assay: Antibacterial activity against Escherichia coli J53 harboring plasmid-encoded beta-lactamase OXA-48 by Etest method in presence of beta-lactamase inhibitor Tazobactam; assay type: functional
Escherichia coli [15] = assay: Antibacterial activity against Escherichia coli J53 harboring plasmid pA-1carrying beta-lactamase OXA-48 by Etest method in presence of beta-lactamase inhibitor Tazobactam; assay type: functional
Klebsiella pneumoniae [16] = assay: Antibacterial activity against Klebsiella pneumoniae 11978 harboring plasmid pA-1carrying beta-lactamase OXA-48 by Etest method in presence of beta-lactamase inhibitor Tazobactam; assay type: functional
Klebsiella pneumoniae [17] = assay: Antibacterial activity against human urinary Klebsiella pneumoniae UCL-1 harboring plasmid-encoded beta-lactamase OXA-48 by Etest method in presence of beta-lactamase inhibitor Tazobactam; assay type: functional; settings: UCL-1, Urine

Beta-lactamase OXA-48 (Klebsiella pneumoniae), sequence (Q6XEC0 whole entry, the tested form may be a part): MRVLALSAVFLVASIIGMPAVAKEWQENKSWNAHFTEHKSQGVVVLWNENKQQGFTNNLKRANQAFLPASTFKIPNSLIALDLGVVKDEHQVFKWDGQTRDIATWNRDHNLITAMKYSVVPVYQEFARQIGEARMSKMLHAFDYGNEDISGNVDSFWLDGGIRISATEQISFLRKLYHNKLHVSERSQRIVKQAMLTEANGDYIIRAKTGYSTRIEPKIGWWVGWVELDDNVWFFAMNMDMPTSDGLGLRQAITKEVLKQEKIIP

Row | SMILES | MIC (Klebsiella pneumoniae [1]) | MIC (Escherichia coli [2]) | MIC (Escherichia coli [3]) | MIC (Escherichia coli [4]) | MIC (Klebsiella pneumoniae [5]) | MIC (Escherichia coli [6]) | MIC (Klebsiella pneumoniae [7]) | MIC (Escherichia coli [8]) | MIC (Klebsiella pneumoniae [9]) | MIC (Escherichia coli [10]) | Activity [11] | inhibition zone (IZ) (Klebsiella pneumoniae [12]) | MIC (Escherichia coli [13]) | MIC (Escherichia coli [14]) | MIC (Escherichia coli [15]) | MIC (Klebsiella pneumoniae [16]) | MIC (Klebsiella pneumoniae [17])
1 | CC1(C)S[C@@H]2[C@H](NC(=O)[C@H](N)c3ccc(O)cc3)C(=O)N2[C@H]1C(=O)O [AMOXICILLIN] | > 256 µg/mL | > 256 µg/mL | 4 µg/mL | 4 µg/mL (≈ 10.9 µM) | > 256 µg/mL | > 256 µg/mL | > 256 µg/mL | > 256 µg/mL | > 256 µg/mL | > 256 µg/mL |  |  |  |  |  |  | 
2 | C[C@H]1[C@H](NC(=O)/C(=N\OC(C)(C)C(=O)O)c2csc(N)n2)C(=O)N1S(=O)(=O)O [AZTREONAM] |  |  |  |  | 0.064 µg/mL (≈ 0.147 µM) | 0.064 µg/mL (≈ 0.147 µM) | > 256 µg/mL | 0.064 µg/mL (≈ 0.147 µM) |  |  |  |  |  |  |  |  | 
3 | CO/N=C(\C(=O)N[C@@H]1C(=O)N2C(C(=O)[O-])=C(C[N+]3(C)CCCC3)CS[C@H]12)c1csc(N)n1 [CEFEPIME] |  |  |  | 0.03 µg/mL (≈ 0.0624 µM) | 0.125 µg/mL (≈ 0.26 µM) | 0.125 µg/mL (≈ 0.26 µM) | 32 µg/mL (≈ 66.6 µM) | 0.125 µg/mL (≈ 0.26 µM) |  |  |  |  |  |  |  |  | 
4 | CO/N=C(\C(=O)N[C@@H]1C(=O)N2C(C(=O)O)=C(COC(C)=O)CS[C@H]12)c1csc(N)n1 [CEFOTAXIME] |  |  |  | 0.06 µg/mL (≈ 0.132 µM) | 0.125 µg/mL (≈ 0.274 µM) | 0.38 µg/mL (≈ 0.834 µM) | 64 µg/mL (≈ 141 µM) | 0.38 µg/mL (≈ 0.834 µM) |  |  |  |  |  |  |  |  | 
5 | CO[C@@]1(NC(=O)Cc2cccs2)C(=O)N2C(C(=O)O)=C(COC(N)=O)CS[C@@H]21 [CEFOXITIN] |  |  |  | 2 µg/mL (≈ 4.68 µM) | 2 µg/mL (≈ 4.68 µM) | 2 µg/mL (≈ 4.68 µM) | 128 µg/mL (≈ 299 µM) | 2 µg/mL (≈ 4.68 µM) |  |  |  |  |  |  |  |  | 
6 | CC(C)(O/N=C(\C(=O)N[C@@H]1C(=O)N2C(C(=O)[O-])=C(C[n+]3ccccc3)CS[C@H]12)c1csc(N)n1)C(=O)O [CEFTAZIDIME] |  |  |  | 0.06 µg/mL (≈ 0.11 µM) | 1 µg/mL (≈ 1.83 µM) | 0.75 µg/mL (≈ 1.37 µM) | > 256 µg/mL | 0.75 µg/mL (≈ 1.37 µM) |  |  |  |  |  |  |  |  | 
7 | CC(=O)OCC1=C(C(=O)O)N2C(=O)[C@@H](NC(=O)Cc3cccs3)[C@H]2SC1 [CEPHALOTHIN] |  |  |  | 4 µg/mL (≈ 10.1 µM) | 16 µg/mL (≈ 40.4 µM) | 8 µg/mL (≈ 20.2 µM) | > 256 µg/mL | 8 µg/mL (≈ 20.2 µM) |  |  |  |  |  |  |  |  | 
8 | C[C@@H](O)[C@H]1C(=O)N2C(C(=O)O)=C(S[C@@H]3CN[C@H](C(=O)Nc4cccc(C(=O)O)c4)C3)[C@H](C)[C@H]12 [ERTAPENEM] |  |  |  | 0.03 µg/mL (≈ 0.0631 µM) | 4 µg/mL (≈ 8.41 µM) | 2 µg/mL (≈ 4.21 µM) | > 32 µg/mL | 2 µg/mL (≈ 4.21 µM) |  |  | 0.04 µmol/min/mg | 18 mm |  |  |  |  | 
9 | C[C@@H](O)[C@H]1C(=O)N2C(C(=O)O)=C(SCCNC=N)C[C@H]12 [IMIPENEM ANHYDROUS] |  |  |  |  | 0.75 µg/mL (≈ 2.51 µM) | 0.75 µg/mL (≈ 2.51 µM) | 64 µg/mL (≈ 214 µM) | 1 µg/mL (≈ 3.34 µM) |  |  | 1.6 µmol/min/mg | 22 mm |  |  |  |  | 
10 | C[C@@H](O)[C@H]1C(=O)N2C(C(=O)O)=C(S[C@@H]3CN[C@H](C(=O)N(C)C)C3)[C@H](C)[C@H]12 [MEROPENEM] |  |  |  | 0.03 µg/mL (≈ 0.0782 µM) | 0.5 µg/mL (≈ 1.3 µM) | 0.5 µg/mL (≈ 1.3 µM) | 64 µg/mL (≈ 167 µM) | 0.5 µg/mL (≈ 1.3 µM) |  |  | 0.05 µmol/min/mg | 23 mm |  |  |  |  | 
11 | CCN1CCN(C(=O)N[C@@H](C(=O)N[C@@H]2C(=O)N3[C@@H]2SC(C)(C)[C@@H]3C(=O)O)c2ccccc2)C(=O)C1=O [PIPERACILLIN] |  |  |  | 1 µg/mL (≈ 1.93 µM) | 256 µg/mL (≈ 495 µM) | 128 µg/mL (≈ 247 µM) | > 256 µg/mL | 128 µg/mL (≈ 247 µM) |  |  |  |  | 1 µg/mL | 128 µg/mL | 128 µg/mL | > 256 µg/mL | 256 µg/mL
12 | CC1(C)S[C@@H]2[C@H](NC(=O)[C@H](C(=O)O)c3ccsc3)C(=O)N2[C@H]1C(=O)O [TICARCILLIN] | > 256 µg/mL | > 256 µg/mL | 2 µg/mL | 2 µg/mL (≈ 5.2 µM) | > 256 µg/mL | > 256 µg/mL | > 256 µg/mL | > 256 µg/mL | > 256 µg/mL | > 256 µg/mL |  |  |  |  |  |  | 
13 | CN(C)c1cc(NC(=O)CNC(C)(C)C)c(O)c2c1C[C@H]1C[C@H]3[C@H](N(C)C)C(O)=C(C(N)=O)C(=O)[C@@]3(O)C(O)=C1C2=O [TIGECYCLINE] |  |  |  | 0.5 µg/mL (≈ 0.854 µM) | 2 µg/mL (≈ 3.41 µM) | 0.5 µg/mL (≈ 0.854 µM) | 1.5 µg/mL (≈ 2.56 µM) | 0.5 µg/mL (≈ 0.854 µM) |  |  |  |  |  |  |  |  | 
